Data set [1] concerns conjunctiva of the animal. Briefly: Local anesthesia activity test. Format: in vivo, guinea pig. The conditions noted are these: 0.1% solution, 3 drops on conjunctiva, 60 stimulations in 30 minutes, four guinea pigs; saline control 0. Here is the method:
Guinea pig having about 300 to 350 g of body weight were used as the test animals. Three (3) drops of 0.1%-test compound dissolved in physiological saline solution were administered through 1/4-sized injection needle on the surface of conjuctiva of the test animal. After the administration of the test solution, the conjunctiva of the animal was stimulated ten times in every 5 minutes by a stylet (mandrine) or 1/4-sized injection needle, the stimulations were repeated 6 times within 30 minutes, thus 60 stimulations were given to the conjunctiva of the animal. The number of disappearing of eye-closing-reflexes, during 30 minutes after the administration of the test solution was counted as to the effectiveness of the local anesthesia activity. In this test, four (4) guinea pigs were used as one test group, and the test solution containing 0.1% of the test compound was applied to one test group, and physiological saline solution was, on the other hand, applied to another test group of the guinea pigs as the control.

A further data set concerns the target ileum of a guinea pig (Cavia porcellus, UniProt P31389). Description: cell-based. To be noted: histamine-induced retraction of guinea pig ileum, test compound 10^-6 g/ml, 36° C., Van Rossam method; for Kb: read-out: pA2 (converted). Here is the method:
Pharmacological tests of the present compounds were conducted according to said method as follows:
A male guinea pig having 300 to 500 g body weight is killed by blood letting. An ileum having length of 15 cm being enucleated from the ileocecal region is dipped into Tyrode's solution (which is prepared from 8.0 g of NaCl, 0.2 g of KCl, 0.2 g of CaCl2, 1.0 g of glucose, 1.0 g of NaHCO3, 0.065 g of NaHPO4.2H2 O and 0.2135 g of MgCl2.6H2 O to make 1000 ml in total volume by adding water). Then the tissue of ileum is cut to a length of 2.5 to 3.0 cm and suspended in an organ bath filled with 30 ml of Tyrode's solution. The organ bath is kept a temperature of 36° C. while blowing a mixed gas consisting of 5% of CO2 and 95% of O2 into the bath. 10 Minutes after the blowing, 10^-6 M of histamine is added to the bath to examine the sensitivity of the tissue and a reaction curve (control) with respect to the dosage of histamine is obtained. After the dosage of histamine-reaction curve (control) become constant 10^-6 g/ml of a compound to be tested is added to the bath and further histamine is added 5 minutes later to obtain dosage-reaction curve. Retraction of the ileum is recorded on a pen-recorder through an isotonic transducer (TD-112S manufactured by Nihon Koden).

The next data set can be described thus: Acute toxicity test. To be noted: rat, in vivo; oral, male rats. The text has this: Each of the compounds of the present invention was orally administered to male rats to determine the acute toxicity.
A further data set has as its system Male mice of ddy-strain. Briefly: Halothane anesthesia increasing activity. Format: in vivo, mouse. The conditions noted are these: oral, 32 mg/kg, 1 hour before 4% Halothane for 3 minutes, male ddy mice; saline control 4.2. Here is the method: Male mice of ddy-strain having about 20 g body weight were used. One test group consists of 10 mice. An aqueous Gummi Arabicum suspension of test compound (80 mg of a compound to be tested and 1 g of Gummi Arabicum/100 ml of physiological NaCl solution) was administered orally to each mouse at the dosage of 32 mg of test compound/kg body. One hour after the administration, each mouse was placed in gas respiration chamber (13×13×24 cm) and oxygen gas containing 4% of Halothane [2-bromo-2-chloro-1,1,1-trifluoroethane] was blown into the chamber at the velocity of 2 l/min for 3 minutes. A mouse anaesthetized was taken out from the chamber and the time between the introduction of anesthesia to waking was measured by righting reflex as the index. To mice of control group, 1% Gummi Arabicum aqueous physiological solution was orally administered at the dosage of 0.1 ml/kg body. (Reference: M. J. Turnbull and J. W. Watkins: Br. J. Pharmacol., 58, 27-35 (1976))

As usually defined, the LD50 is the dose at which mortality reaches 50%. A higher LD50 goes with lower toxicity. By pA2 is commonly meant a measure of antagonist potency on a negative log scale. Higher therefore signals higher antagonist potency.

ileum of a guinea pig, sequence (P31389 whole entry): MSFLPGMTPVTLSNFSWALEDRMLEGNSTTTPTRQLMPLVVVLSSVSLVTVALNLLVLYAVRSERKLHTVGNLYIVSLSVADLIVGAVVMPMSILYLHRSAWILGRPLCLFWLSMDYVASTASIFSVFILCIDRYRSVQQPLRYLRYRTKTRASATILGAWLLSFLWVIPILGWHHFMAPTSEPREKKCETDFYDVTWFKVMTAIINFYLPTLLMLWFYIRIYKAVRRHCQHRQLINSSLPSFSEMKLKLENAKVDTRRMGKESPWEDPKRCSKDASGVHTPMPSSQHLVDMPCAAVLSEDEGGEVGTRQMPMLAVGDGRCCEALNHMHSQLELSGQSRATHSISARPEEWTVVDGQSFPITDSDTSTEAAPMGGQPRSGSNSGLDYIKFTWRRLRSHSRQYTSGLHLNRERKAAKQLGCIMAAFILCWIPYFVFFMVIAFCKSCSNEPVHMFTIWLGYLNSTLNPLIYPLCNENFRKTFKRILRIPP

Turning to `Cc1cc(=O)n(C)c2cc(OCCCN3CCN(Cc4ccc(Cl)cc4)CC3)ccc12` [C, 1,4-Dimethyl-7-{3-[4-(4-chlorobenzyl)-1-piperazin-1-yl]propoxy}-2-oxo-1,2-dihydroquinoline, reference compound], in data set [1], the “Number of eye-closing reflex (number of disappearing of eye-closing-reflexes during 30 minutes)” value (“Number of eye-closing reflex” for short) was found to be 2.8.
`O=C1CCc2c(cccc2OCCCN2CCC(Cc3ccccc3)CC2)N1` [Compound 1, 5-[3-(4-Benzyl-1-piperidyl)propoxy]-3,4-dihydrocarbostyril]: in data set [1], the “Number of eye-closing reflex” value turned out to be 55.1. Moreover, the Kb on ileum of a guinea pig was 0.302 nM. In “Acute toxicity test”, this compound yielded an LD50 of more than 1000 mg/kg. Moreover, the “Time (minutes) between introduction of anesthesia and waking (righting reflex)” value (shortened to “Time (minutes) between introduction”) in the data set on Male mice of ddy-strain was 4.7 min.
For `CN1C(=O)CCc2ccc(OCCCN3CCC(Cc4ccccc4)CC3)cc21.O=C(O)C(=O)O` [Compound 2, 1-Methyl-7-[3-(4-benzyl-1-piperidyl)propoxy]-3,4-dihydrocarbostyril monooxalate] the same measures were 58.0, 0.02 nM, more than 1000 mg/kg and 4.9 min.
For `O=C1CCc2ccc(OCC(O)CN3CCC(c4ccccc4)CC3)cc2N1` (stereo not shown) [Compound 9, 7-[2-Hydroxy-3-(4-phenyl-1-piperidyl)propoxy]-3,4-dihydrocarbostyril], in that order: 29.2, 0.129 nM, more than 1000 mg/kg and 4.1 min.
For the compound `CN1C(=O)CCc2c(OCC(O)CN3CCC(Cc4ccccc4)CC3)cccc21.O=C(O)C(=O)O` (stereo not shown) [Compound 10, 1-Methyl-5-[2-hydroxy-3-(4-benzyl-1-piperidyl)-propoxy]-3,4-dihydrocarbostyril monooxalate], in data set [1], the “Number of eye-closing reflex” value was determined as 37.3. In addition, the Kb on ileum of a guinea pig is 0.24 nM. The compound also displayed a 50% lethal dose (LD50) in “Acute toxicity test” of more than 1000 mg/kg. Also, the “Time (minutes) between introduction” value with Male mice of ddy-strain worked out at 4.8 min.
For `C[N+]1(CC(O)COc2cccc3c2CCC(=O)N3)CCC(c2ccccc2)CC1` (stereo not shown) [Compound 11, 4-Phenyl-1-[2-hydroxy-3-(2-oxo-1,2,3,4-tetra-hydroquinolin-5-yloxy)propyl]-1-methyl-piperidium iodide] the same measures were 27.6, 5.89 nM, more than 1000 mg/kg and 5.2 min.
For `O=c1cc(-c2ccccc2)c2ccc(OCCCN3CCC(c4ccccc4)CC3)cc2[nH]1` [Compound 13, 4-Phenyl-7-[3-(4-phenyl-1-piperidyl)propoxy]-carbostyril monohydrochoride], in that order: 28.0, 0.186 nM, more than 1000 mg/kg and 5.6 min.
Regarding `CC(=O)C1(c2ccccc2)CCN(CCCOc2ccc3c(c2)NC(=O)CC3)CC1` [Compound 15, 7-{3-[4-(4-Acetyl-4-phenyl)-1-piperidyl]}-3,4-dihydrocarbostyril], the “Number of eye-closing reflex” value in data set [1] came out at 35.5. This compound had a pA2 on ileum of a guinea pig of 9.92. The compound further registered a median lethal dose (LD50) in “Acute toxicity test” of more than 1000 mg/kg. For the same compound, the “Time (minutes) between introduction” value in the data set on Male mice of ddy-strain stood at 4.7 min.
With `Cc1cc(=O)n(C)c2ccc(OCCCN3CCN(Cc4ccc(Cl)cc4)CC3)cc12` [D, reference compound], in data set [1], the “Number of eye-closing reflex” value stood at 3.8.
Still for that read-out and setting: the figure for `Cc1cc(=O)[nH]c2cc(OCCCN3CCN(Cc4ccccc4)CC3)ccc12` [E, 4-Methyl-7-[3-(4-benzyl-piperazin-1-yl)-propoxy]-2-oxo-1,2-dihydroquinoline, reference compound] is 5.2.
